Laboratory results reported in ChEMBL document CHEMBL4419174, “Small molecule inhibitors of apobec3g and apobec3b” (2015).
Calls of active or inactive are those of the source. The rule behind the calls is not given here.

What was measured:
[1] = target: T1, DNA dC->dU-editing enzyme APOBEC-3A (Homo sapiens, UniProt P31941); assay: (§1) Inhibition of recombinant APOBEC3A (unknown origin) expressed in HEK293 cells assessed as reduction in cytosine deaminase activity using 5'-6-FAM and 3'-TAMRA quench molecule tagged cytosine-containing single-stranded DNA substrate incubated for 2 hrs by fluorescence-based assay; format: cell-based
T1 sequence (P31941 whole entry): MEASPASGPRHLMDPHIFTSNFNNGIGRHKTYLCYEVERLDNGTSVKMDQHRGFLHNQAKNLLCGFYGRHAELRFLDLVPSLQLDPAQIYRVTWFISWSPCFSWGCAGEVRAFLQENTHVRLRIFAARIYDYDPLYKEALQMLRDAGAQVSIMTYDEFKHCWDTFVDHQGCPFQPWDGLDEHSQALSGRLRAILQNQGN

[2] = Inhibition of recombinant APOBEC3G 2K3A mutant (unknown origin) expressed in HEK293 cells assessed as reduction in cytosine deaminase activity using 5'-6-FAM and 3'-TAMRA quench molecule tagged cytosine-containing single-stranded DNA substrate incubated for 2 hrs by fluorescence-based assay; format: cell-based, Homo sapiens
[3] = target: DNA dC->dU-editing enzyme APOBEC-3G (Homo sapiens, UniProt Q9HC16, C321A); assay: Inhibition of recombinant APOBEC3G C321A mutant (unknown origin) expressed in HEK293 cells assessed as reduction in cytosine deaminase activity using 5'-6-FAM and 3'-TAMRA quench molecule tagged cytosine-containing single-stranded DNA substrate incubated for 2 hrs by fluorescence-based assay; format: cell-based
Chain of DNA dC->dU-editing enzyme APOBEC-3G (Homo sapiens, UniProt Q9HC16, C321A) (Q9HC16 whole entry C321A): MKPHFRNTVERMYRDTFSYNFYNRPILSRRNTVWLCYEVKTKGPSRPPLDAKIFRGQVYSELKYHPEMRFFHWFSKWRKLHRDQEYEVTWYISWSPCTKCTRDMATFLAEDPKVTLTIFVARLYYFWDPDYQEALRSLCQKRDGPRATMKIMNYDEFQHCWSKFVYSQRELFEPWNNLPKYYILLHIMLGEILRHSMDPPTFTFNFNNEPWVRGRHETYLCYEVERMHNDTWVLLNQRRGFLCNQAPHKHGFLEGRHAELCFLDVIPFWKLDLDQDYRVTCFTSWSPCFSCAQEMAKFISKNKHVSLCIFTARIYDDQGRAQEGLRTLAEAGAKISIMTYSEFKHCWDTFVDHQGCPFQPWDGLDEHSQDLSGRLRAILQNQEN

[4] = target: DNA dC->dU-editing enzyme APOBEC-3B (Homo sapiens, UniProt Q9UH17); assay: Inhibition of recombinant APOBEC3B (unknown origin) expressed in HEK293 cells assessed as reduction in cytosine deaminase activity using 5'-6-FAM and 3'-TAMRA quench molecule tagged cytosine-containing single-stranded DNA substrate incubated for 2 hrs by fluorescence-based assay; format: cell-based
Chain of DNA dC->dU-editing enzyme APOBEC-3B (Q9UH17 whole entry): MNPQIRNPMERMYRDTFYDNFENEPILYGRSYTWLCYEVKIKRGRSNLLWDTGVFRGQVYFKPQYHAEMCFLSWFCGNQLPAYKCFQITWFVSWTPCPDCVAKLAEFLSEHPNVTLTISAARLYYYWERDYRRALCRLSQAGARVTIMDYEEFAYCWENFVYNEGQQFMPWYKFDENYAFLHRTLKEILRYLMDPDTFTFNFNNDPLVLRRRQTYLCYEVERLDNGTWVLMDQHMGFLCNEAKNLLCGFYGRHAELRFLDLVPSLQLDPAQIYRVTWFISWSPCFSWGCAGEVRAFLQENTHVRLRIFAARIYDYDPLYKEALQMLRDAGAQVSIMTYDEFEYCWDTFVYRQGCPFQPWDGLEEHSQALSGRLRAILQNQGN

[5] = target: T2, DNA dC->dU-editing enzyme APOBEC-3G (Homo sapiens, UniProt Q9HC16); assay: (§2) Inhibition of recombinant APOBEC3G (unknown origin) expressed in HEK293 cells assessed as reduction in cytosine deaminase activity using 5'-6-FAM and 3'-TAMRA quench molecule tagged cytosine-containing single-stranded DNA substrate incubated for 2 hrs by fluorescence-based assay; format: cell-based
T2 sequence (Q9HC16 whole entry): as the sequence (Q9HC16 whole entry C321A) above, with A321C counted along it

[6] = Toxicity in human HeLa cells assessed as cell viability at 50 uM incubated for 5 days relative to control; format: cell-based; conditions: read-out: Activity
[7] = Drug metabolism in DMSO at 10 mM shaken gently at 25 degC open to atmosphere condition assessed as 2-oxo-1,2-dihydroquinoline-4-carboxylic acid formation after 38 days by HPLC analysis
[8] = target: T2, DNA dC->dU-editing enzyme APOBEC-3G; assay: as §2, with “hrs and measured on at days 3, 21, 38, and 72” for “hrs”; format: cell-based
[9] = Stability in DMSO assessed as drug degradation incubated for 21 days by HPLC analysis; format: physicochemical; conditions: 504 h
[10] = target: T2, DNA dC->dU-editing enzyme APOBEC-3G; assay: as §2, with “activity at 200 uM” for “activity”, “hrs and measured on day 0” for “hrs”; format: cell-based
[11] = target: T1, DNA dC->dU-editing enzyme APOBEC-3A; conditions: HEK293, 200 uM
Description: Inhibition of recombinant APOBEC3A (unknown origin) expressed in HEK293 cells assessed as reduction in cytosine deaminase activity at 200 uM using 5'-6-FAM and 3'-TAMRA quench molecule tagged cytosine-containing single-stranded DNA substrate incubated for 2 hrs and measured on day 0 by fluorescence-based assay

[12] = Stability in DMSO at 10 mM shaken gently at 25 degC exposed toN2 atmosphere assessed as compound degradation measured over 9 hrs by HPLC analysis; format: physicochemical; conditions: 10000 µM
[13] = Drug metabolism in DMSO at 10 mM shaken gently at 25 degC exposed to visible light (300 W) in oxygen-saturated atmosphere assessed as 2-oxo-1,2-dihydroquinoline-4-carboxylic acid formation after 38 days by HPLC analysis
[14] = Stability in saturated N2 atmosphere assessed as drug degradation by NMR and LC-MS/MS analysis; format: physicochemical
[15] = Stability in DMSO assessed as light dependent drug degradation by HPLC analysis; format: physicochemical
[16] = Stability in DMSO assessed as drug degradation at -20 to 37 degC by HPLC analysis; format: physicochemical
[17] = Toxicity in HEK293T cells assessed as cell viability at 50 uM incubated for 5 days relative to control; format: cell-based, HEK-293T; conditions: human, read-out: Activity
[18] = target: T1, DNA dC->dU-editing enzyme APOBEC-3A; assay: as §1, with “activity at 200 uM” for “activity”, “assay relative to control” for “assay”; format: cell-based

| SMILES | IC50 [1] [µM] | IC50 [2] [µM] | IC50 [3] [µM] | IC50 [4] [µM] | IC50 [5] [µM] | other results |
| --- | --- | --- | --- | --- | --- | --- |
| O=C(O)c1cccc2c1C(=O)N(c1ccccc1)C2 | 111 | – | – | – | – | – |
| Nc1ccc2[nH]c(=O)cc(C(=O)Nc3nnc(-c4ccncc4)s3)c2c1 | > 100 | 55 | 30 | 31 | 18 | – |
| Cc1ccc(-c2cc(C(=O)Nc3nnc(-c4ccncc4)s3)c3ccccc3n2)o1 | – | – | – | – | – | viability at 120 h, 50 µM [6]: > 85%; Drug metabolism [7]: Metabolite detected; inhibition [8]: inactive; Stability [9]: Unstable; inhibition [10]: inactive; inhibition [11]: inactive; Stability [12]: Stable; Drug metabolism [13]: Metabolite detected; Stability [14]: Stable; Stability [15]: Unstable; Stability [16]: Unstable; viability at 120 h, 50 µM [17]: > 85% |
| O=C(Nc1nnc(-c2ccncc2)s1)c1cc(=O)[nH]c2ccc([N+](=O)[O-])cc12 | > 100 | 74 | 23 | 31 | 12 | – |
| O=C(Nc1nnc(-c2ccncc2)s1)c1cc(Cl)nc2ccccc12 | > 100 | > 100 | > 100 | > 100 | 22 | – |
| O=C(Nc1nnc(-c2ccncc2)s1)c1ccc(O)nc1 | 87 | – | 31 | 30 | 21 | – |
| O=C(Nc1nnc(-c2ccncc2)s1)c1cc(=O)[nH]c2ccccc12 | > 100 | > 100 | > 100 | > 100 | 90 | inhibition [18]: 50% |
| O=C(Nc1nnc(-c2ccncc2)s1)c1cc(Br)nc2ccccc12 | 75 | – | 52 | 65 | 32 | – |
| N#Cc1ncnn1C(=O)c1cc(=O)[nH]c2ccccc12 | > 100 | > 100 | > 100 | > 100 | 15 | – |
| COc1ccc2[nH]c(=O)cc(C(=O)Nc3nnc(-c4ccncc4)s3)c2c1 | > 100 | 24 | 20 | 37 | 17 | – |
| O=C(Nc1nnc(-c2ccncc2)s1)c1ccnc(O)c1 | > 100 | > 100 | – | – | 60 | – |
